# Test results from patent US20230355571A1, “METHOD FOR TREATING VIRAL AND BACTERIAL INFECTION THROUGH INHALATION THERAPY” (priority 2020, published 2023).
# Read-outs that look alike come from different tables or passages of the source.
# What was measured:
# [1] = for Concentration in Epithelial Lining Fluid: single 2 mL dose, 25 mL ELF, 100 percent retained
# CB2 receptor = CB2 receptor (Homo sapiens, UniProt P34972); details: unit inferred; read-out: Ki, CB2 receptor binding; cited from earlier work
# E. coli (MTCC 732) = details: cited from earlier work
# S. aureus = details: cited from earlier work
# K. pneumoniae = details: cited from earlier work
# P. aeruginosa = details: cited from earlier work
# [2] = tested on: Herpes simplex virus type 1 (HSV-1); details: cited from earlier work
# DENV-2 (Dengue Virus 2) = details: cited from earlier work
# [3] = tested on: human lung carcinoma (A549) cell line; details: cited from earlier work
# NCI-H358 cells = details: cited from earlier work
# human whole blood = details: 102 μg/mL; cited from earlier work
# [4] = cited from earlier work
# mice [5] = test: NOAEL, oral, mice; details: for factor NOAEL over daily inhaled dose: 2 mL/dose 4 times per day of Table A2 composition; for NOAEL for a 62 kg adult human: extrapolated from mouse NOAEL
# hTRPA1 = hTRPA1 (Homo sapiens, UniProt O75762); details: cited from earlier work
# human TRPM8 (hTRPM8) = human TRPM8 (hTRPM8) (Homo sapiens, UniProt Q7Z2W7); details: cited from earlier work
# TRPV1 = TRPV1 (Homo sapiens, UniProt Q8NER1); details: cited from earlier work
# hTRPV2 = hTRPV2 (Homo sapiens, UniProt Q9Y5S1); details: cited from earlier work
# [6] = tested on: patients with steroid-dependent bronchial asthma; details: cited from earlier work
# [7] = tested on: patients with reversible obstructive ventilatory disorders; details: cited from earlier work
# blood monocytes = details: cited from earlier work
# lymphocytes = details: cited from earlier work
# monocytes = details: cited from earlier work
# [8] = tested on: superoxide, super oxide dismutase, hydrogen peroxide, 8-isoprostanes; details: cited from earlier work
# avian coronavirus (IBV) = details: cited from earlier work
# mice [9] = details: oral, mice, 28-d; cited from earlier work
# Chain of hTRPA1 (O75762 whole entry): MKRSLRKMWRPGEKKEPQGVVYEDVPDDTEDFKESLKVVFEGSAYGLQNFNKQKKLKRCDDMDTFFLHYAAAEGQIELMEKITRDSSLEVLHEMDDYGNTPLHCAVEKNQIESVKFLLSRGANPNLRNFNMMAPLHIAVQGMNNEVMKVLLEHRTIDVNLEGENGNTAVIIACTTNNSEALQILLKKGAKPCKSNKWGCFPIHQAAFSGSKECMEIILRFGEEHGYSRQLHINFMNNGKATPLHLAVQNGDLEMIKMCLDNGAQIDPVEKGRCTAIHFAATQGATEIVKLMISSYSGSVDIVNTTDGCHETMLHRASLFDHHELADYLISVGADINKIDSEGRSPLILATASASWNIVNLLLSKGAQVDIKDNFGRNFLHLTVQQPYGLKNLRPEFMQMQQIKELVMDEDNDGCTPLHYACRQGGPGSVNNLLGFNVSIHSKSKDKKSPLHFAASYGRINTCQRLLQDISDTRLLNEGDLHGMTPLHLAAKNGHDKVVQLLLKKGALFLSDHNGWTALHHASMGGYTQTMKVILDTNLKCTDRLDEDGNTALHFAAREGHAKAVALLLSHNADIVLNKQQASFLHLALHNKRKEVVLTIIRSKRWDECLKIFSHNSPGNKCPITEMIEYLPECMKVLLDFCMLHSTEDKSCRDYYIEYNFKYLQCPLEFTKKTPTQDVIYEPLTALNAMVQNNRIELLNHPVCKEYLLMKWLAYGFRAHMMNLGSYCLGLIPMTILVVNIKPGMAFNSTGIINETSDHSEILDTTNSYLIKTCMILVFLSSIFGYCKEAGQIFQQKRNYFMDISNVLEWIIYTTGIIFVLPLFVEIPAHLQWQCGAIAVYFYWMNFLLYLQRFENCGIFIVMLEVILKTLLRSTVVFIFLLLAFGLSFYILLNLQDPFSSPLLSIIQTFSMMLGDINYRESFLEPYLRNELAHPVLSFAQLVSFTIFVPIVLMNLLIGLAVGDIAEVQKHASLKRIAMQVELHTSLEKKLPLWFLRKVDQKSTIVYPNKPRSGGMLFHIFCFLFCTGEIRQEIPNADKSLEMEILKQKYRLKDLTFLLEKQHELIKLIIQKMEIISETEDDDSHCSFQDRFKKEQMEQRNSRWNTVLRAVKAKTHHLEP
# Chain of CB2 receptor (P34972 whole entry): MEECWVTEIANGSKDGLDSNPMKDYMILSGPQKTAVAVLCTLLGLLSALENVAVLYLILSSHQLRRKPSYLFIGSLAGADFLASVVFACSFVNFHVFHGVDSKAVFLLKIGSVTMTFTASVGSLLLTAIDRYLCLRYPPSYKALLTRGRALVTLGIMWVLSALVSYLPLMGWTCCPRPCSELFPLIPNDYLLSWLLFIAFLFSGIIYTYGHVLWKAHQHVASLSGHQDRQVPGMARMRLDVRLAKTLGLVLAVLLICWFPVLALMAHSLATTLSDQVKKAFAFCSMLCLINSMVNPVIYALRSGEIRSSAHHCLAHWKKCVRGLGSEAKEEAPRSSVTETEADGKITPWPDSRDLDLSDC
# Chain of TRPV1 (Q8NER1 whole entry): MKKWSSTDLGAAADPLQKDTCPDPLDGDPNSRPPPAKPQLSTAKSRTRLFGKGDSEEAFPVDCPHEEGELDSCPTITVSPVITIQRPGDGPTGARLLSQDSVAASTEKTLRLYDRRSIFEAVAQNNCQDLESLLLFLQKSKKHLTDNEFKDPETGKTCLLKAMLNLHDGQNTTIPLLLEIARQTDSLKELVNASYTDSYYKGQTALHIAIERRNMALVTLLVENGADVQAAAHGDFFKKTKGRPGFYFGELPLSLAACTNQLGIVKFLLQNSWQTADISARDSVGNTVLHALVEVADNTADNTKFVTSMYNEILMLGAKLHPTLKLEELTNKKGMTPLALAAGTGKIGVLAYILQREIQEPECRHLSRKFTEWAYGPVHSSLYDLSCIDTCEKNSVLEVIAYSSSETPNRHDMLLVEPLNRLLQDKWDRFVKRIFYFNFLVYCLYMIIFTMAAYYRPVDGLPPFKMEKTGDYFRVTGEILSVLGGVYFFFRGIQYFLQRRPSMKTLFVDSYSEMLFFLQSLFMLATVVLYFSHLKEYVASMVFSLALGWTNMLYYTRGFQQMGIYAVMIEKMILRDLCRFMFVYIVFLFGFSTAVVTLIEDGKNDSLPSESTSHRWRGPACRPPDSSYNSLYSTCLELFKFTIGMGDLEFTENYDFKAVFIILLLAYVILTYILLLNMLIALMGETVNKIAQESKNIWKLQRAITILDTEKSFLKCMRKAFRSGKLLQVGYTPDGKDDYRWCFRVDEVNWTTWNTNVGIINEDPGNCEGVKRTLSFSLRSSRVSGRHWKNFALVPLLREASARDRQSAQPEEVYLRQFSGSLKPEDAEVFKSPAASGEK
# Chain of hTRPV2 (Q9Y5S1 whole entry): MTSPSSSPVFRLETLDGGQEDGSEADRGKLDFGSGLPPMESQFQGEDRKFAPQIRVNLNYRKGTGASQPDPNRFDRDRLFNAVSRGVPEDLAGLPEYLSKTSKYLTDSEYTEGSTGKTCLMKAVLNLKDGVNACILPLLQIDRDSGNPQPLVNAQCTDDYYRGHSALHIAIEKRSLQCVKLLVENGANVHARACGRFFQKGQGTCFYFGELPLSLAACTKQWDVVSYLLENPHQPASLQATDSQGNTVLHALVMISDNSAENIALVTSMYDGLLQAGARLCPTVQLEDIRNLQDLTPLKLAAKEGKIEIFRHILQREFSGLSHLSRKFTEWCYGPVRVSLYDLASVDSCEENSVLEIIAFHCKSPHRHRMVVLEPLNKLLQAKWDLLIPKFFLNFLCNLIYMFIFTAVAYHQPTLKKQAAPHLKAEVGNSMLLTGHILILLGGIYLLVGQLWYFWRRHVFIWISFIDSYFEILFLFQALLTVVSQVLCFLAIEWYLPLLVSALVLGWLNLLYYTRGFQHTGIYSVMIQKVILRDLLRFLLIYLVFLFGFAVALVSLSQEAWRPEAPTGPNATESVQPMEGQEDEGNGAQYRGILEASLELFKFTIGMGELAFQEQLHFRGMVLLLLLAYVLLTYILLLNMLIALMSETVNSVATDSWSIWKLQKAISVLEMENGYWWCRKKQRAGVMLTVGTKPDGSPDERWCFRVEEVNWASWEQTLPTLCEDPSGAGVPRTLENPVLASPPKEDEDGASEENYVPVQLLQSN
# Chain of human TRPM8 (hTRPM8) (Q7Z2W7 whole entry): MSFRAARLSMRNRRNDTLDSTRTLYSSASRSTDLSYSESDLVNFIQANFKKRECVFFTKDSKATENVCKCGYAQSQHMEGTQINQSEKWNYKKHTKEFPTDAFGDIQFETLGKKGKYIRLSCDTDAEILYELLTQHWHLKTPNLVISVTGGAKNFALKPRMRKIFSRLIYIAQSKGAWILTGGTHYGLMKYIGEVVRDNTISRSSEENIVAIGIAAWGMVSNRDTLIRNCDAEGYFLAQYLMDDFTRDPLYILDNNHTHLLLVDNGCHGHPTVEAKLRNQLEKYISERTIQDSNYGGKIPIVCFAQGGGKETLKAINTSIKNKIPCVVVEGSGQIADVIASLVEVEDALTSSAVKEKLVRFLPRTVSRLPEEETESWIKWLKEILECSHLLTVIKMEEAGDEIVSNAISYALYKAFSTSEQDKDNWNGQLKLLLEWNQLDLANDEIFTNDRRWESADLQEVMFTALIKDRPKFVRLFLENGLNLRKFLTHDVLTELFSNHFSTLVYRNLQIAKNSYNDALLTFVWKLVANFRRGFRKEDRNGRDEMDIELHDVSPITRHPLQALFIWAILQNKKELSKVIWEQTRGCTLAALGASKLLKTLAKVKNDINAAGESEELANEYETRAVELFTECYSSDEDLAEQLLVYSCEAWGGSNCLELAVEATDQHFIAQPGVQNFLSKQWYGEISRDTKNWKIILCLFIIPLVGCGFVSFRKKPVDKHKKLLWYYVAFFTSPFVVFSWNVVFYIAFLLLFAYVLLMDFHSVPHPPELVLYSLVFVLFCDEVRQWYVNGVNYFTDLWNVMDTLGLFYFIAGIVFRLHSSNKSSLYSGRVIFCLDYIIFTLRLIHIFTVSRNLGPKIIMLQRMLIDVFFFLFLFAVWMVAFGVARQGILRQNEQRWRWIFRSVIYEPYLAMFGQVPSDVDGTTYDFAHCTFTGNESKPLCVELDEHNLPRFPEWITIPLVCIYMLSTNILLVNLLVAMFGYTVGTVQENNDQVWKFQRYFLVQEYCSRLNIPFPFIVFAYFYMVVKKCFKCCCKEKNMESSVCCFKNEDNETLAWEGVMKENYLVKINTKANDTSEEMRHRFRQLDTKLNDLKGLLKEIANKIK
structure (smiles),measurement,setting,value
C=C1CC/C=C(\C)CC[C@@H]2[C@@H]1CC2(C)C [β-caryophyllene],Concentration in Epithelial Lining Fluid,[1]; Table A2 Preferred Base Viral Nebulizer Liquid,600 µg/mL
same,Concentration in Epithelial Lining Fluid,[1]; Table A3 Preferred Viral Respiratory Challenged Nebulizer Liquid,970 µg/mL
same,Concentration in Epithelial Lining Fluid,[1]; Table A4 Preferred Bacterial Pneumonia Nebulizer Liquid,1450 µg/mL
same,Concentration in Epithelial Lining Fluid,[1]; Table A6 Preferred Base Nebulizer Liquid with Amino Acids,1450 µg/mL
same,Ki,CB2 receptor,0.155 µM
same,Minimum Inhibitory Concentration (MIC),E. coli (MTCC 732),9.0 ± 2.2 µM
same,MIC,S. aureus,3 µM
same,MIC,K. pneumoniae,14 µM
same,MIC,P. aeruginosa,7 µM
same,IC50,[2],0.25 µM
same,selectivity index,"DENV-2 (Dengue Virus 2); DENV-2, non-cytostatic",71.1
same,IC50,DENV-2 (Dengue Virus 2),22.5 µM
same,"IC50, DENV-2",DENV-2 (Dengue Virus 2),4.6 µg/mL
same,cytotoxic IC50,[3],28.18 ± 1.96 µg/mL
same,cytotoxic IC50,NCI-H358 cells,31.19 ± 2.01 µg/mL
same,LPS-stimulated IL-1β and TNF-α expression,human whole blood,inhibits
same,LD50,[4]; in vivo,"> 5,000 mg/kg"
same,factor NOAEL over daily inhaled dose,mice [5],868 times
same,NOAEL for a 62 kg adult human,mice [5],"43,400 mg per day"
"CC12CCC(CC1)C(C)(C)O2 [1,8-cineole]",activation of hTRPA1,hTRPA1,did not activate
same,activation of hTRPM8,human TRPM8 (hTRPM8),activates
same,estimated concentration in the epithelial lining fluid of the lungs,[1]; human,614 µg/mL
same,activation of hTRPV1,TRPV1,did not activate
same,activation of hTRPV2,hTRPV2,did not activate
same,mean reduction in daily prednisolone dosage,"[6]; 200 mg 3 times per day orally, 12 weeks, placebo 0.91 mg",3.75 mg
same,reductions in daily prednisolone dosage tolerated,"[6]; 200 mg 3 times per day orally, 12 weeks, placebo 7%",36%
same,patients achieving a reduction of oral steroids,"[6]; 1,8-cineole group, placebo four out of 16",Twelve of 16
same,improvement of airway resistance,[7]; treatment duration eight weeks,−21%
same,improvement of airway resistance,[7]; treatment duration one week,−23%
same,production of LTB4 from monocytes ex vivo,"blood monocytes; day 4, healthy volunteers",−57.9%
same,production of PGE2 from monocytes ex vivo,"blood monocytes; day 4, healthy volunteers",−42.7%
same,production of LTB4 from monocytes ex vivo,"blood monocytes; day 4, patients with bronchial asthma, 200 mg 3 times/day",−40.3%
same,production of PGE2 from monocytes ex vivo,"blood monocytes; day 4, patients with bronchial asthma",−31.3%
same,inhibition of IL-1β production by lymphocytes,lymphocytes; 0.15 μg/ml,36%
same,inhibition of TNF-α production by lymphocytes,lymphocytes; 0.15 μg/ml,16%
same,inhibition of IL-4 production in lymphocytes,lymphocytes; 1.5 μg/mL,70%
same,inhibition of IL-5 production in lymphocytes,lymphocytes; 1.5 μg/mL,65%
same,inhibition of TNFα production in lymphocytes,lymphocytes; 1.5 μg/mL,92%
same,"inhibition of cytokine production in lymphocytes, second value (cytokine not named)",lymphocytes; 1.5 μg/mL,84%
same,inhibition of IL-1β production by monocytes,monocytes; 0.15 μg/ml,61%
same,inhibition of TNFα production by monocytes,monocytes; 0.15 μg/ml,77%
same,inhibition of IL-1β production in monocytes,monocytes; 1.5 μg/mL,84%
same,inhibition of IL-6 production in monocytes,monocytes; 1.5 μg/mL,76%
same,inhibition of IL-8 production in monocytes,monocytes; 1.5 μg/mL,65%
same,inhibition of TNFα production in monocytes,monocytes; 1.5 μg/mL,99%
same,LPS-stimulated 8-isoprostanes,[8]; 10^−5 M,−84%
same,LPS-stimulated 8-isoprostanes,[8]; 10^−6 M,−42%
same,IC50,avian coronavirus (IBV),610 µM
same,NOAEL,mice [9],562.5 mg/kg
same,LD50,[4]; in vivo,"2,480 mg/kg"
same,LD50,"[4]; oral, rat","2,480 mg/kg"
same,factor NOAEL over daily inhaled dose,mice [5],697.5 times
same,NOAEL for a 62 kg adult human,mice [5],"34,875 mg per day"
